pEC50, pIC50: −log10 of the molar value. Like-named read-outs stand apart in the source and are kept apart here.
Legend:
HRV3C = molecular target: T1, HRV3C (Human rhinovirus 14, UniProt P03303); assay: biochemical; set-up: species or system HRV; settings: HRV3C, 30 mins preincubation, SAMDI-MS; read-out: HRV IC50 (bound)
T1 construct: 3CLpro and HRV3C was added using a Multidrop Combi

SARS-Cov-2 3CLpro = molecular target: T2, SARS-Cov-2 3CLpro (Severe acute respiratory syndrome coronavirus 2, UniProt P0DTD1); assay: biochemical; settings: read-out: SARS-Cov-2 IC50 (class)
T2 construct: 3CLpro and HRV3C was added using a Multidrop Combi

[1] = test system: human beta-coronavirus OC43; assay: OC43 coronavirus antiviral assay in HeLa cells (cytopathic effect, cell-titer-glo); assay type: cell-based; settings: 6 days at 33° C.
human cathepsin L = molecular target: T3, human cathepsin L (Homo sapiens, UniProt P07711); assay: Cathepsin L assay (Z-FR-AMC fluorescence); assay type: biochemical; settings: 10 pM human cathepsin L, 30 mins preincubation, Z-FR-AMC 2 μM
T3 construct: purchased R&D Systems
Procedure, shortened: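 IC50 values were taken from four-parameter fits of fluorescence read at 355/460 nm every 2 minutes for 30 minutes. The reaction started when 2 μM Z-FR-AMC was added. Before that, 10 pM human cathepsin L had been preincubated with inhibitor for 30 minutes.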

HeLa cells = assay: Cytotoxicity in HeLa cells without OC43 virus (cell-titer-glo); settings: HeLa cells without OC43 virus
[2] = test system: A549-dual_ACE2_TMPRSS2 cells; settings: read-out: A549-dual_ACE2_TMPRSS2 (CC50); assay medium without virus, MTS, numeric values
[3] = test system: B.1.1.7 lineage SARS-CoV-2; assay: microbe, parasite or virus in culture; assay type: cell-based; settings: read-out: A549-dual_ACE2_TMPRSS2 (EC50)
[4] = test system: SARS-CoV-2-GHB-03021/2020; assay type: cell-based; settings: read-out: VeroE6 + CP (EC50)
[5] = 3CLpro, 30 mins preincubation, SAMDI-MS
[6] = Betacoronavirus 1, OC43, HeLa, 144 h, read-out: EC50 (bound)
[7] = Severe acute respiratory syndrome coronavirus 2, 96 h
[8] = Betacoronavirus 1, OC43, HeLa, 144 h, read-out: EC50 (class)

T1 sequence (P03303 1538-1719): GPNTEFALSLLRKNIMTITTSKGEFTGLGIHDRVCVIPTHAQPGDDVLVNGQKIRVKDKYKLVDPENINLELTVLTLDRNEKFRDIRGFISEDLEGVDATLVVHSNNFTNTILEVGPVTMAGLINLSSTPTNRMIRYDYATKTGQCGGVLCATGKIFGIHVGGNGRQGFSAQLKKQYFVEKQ
T3 sequence (P07711 114-333): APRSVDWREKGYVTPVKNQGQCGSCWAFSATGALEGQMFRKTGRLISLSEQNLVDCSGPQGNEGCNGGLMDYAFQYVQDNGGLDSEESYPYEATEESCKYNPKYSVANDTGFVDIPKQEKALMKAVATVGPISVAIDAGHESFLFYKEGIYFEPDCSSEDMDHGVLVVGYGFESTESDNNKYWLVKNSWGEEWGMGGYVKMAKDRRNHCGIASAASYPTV

| Compound | pIC50 (HRV3C) | pIC50 (SARS-Cov-2 3CLpro; [5]) | pEC50 ([1]; read-out: EC50 (class)) | pIC50 (human cathepsin L) | CC50 (HeLa cells) [µM] | CC50 [2] [µM] | pIC50 (SARS-Cov-2 3CLpro) | pEC50 [3] | pEC50 [1, 6] | pEC50 [4] | pEC50 [3, 7] | pEC50 [1, 8] | pEC50 ([3]; Severe acute respiratory syndrome coronavirus 2, 96 h, […], numeric bounds given instead of class symbols) |
| --- | --- | --- | --- | --- | --- | --- | --- | --- | --- | --- | --- | --- | --- |
| CC(C)(C)[C@H](NC(=O)C(F)(F)F)C(=O)N1C[C@H]2[C@@H]([C@H]1C(=O)N[C@H](C#N)C[C@@H]1CCNC1=O)[C@H]1C=C[C@@H]2CC1 [Compound 59b] | < 5.00 | > 7.70 | > 7.00 | ≤ 5.00 | > 100 | > 10 | – | – | – | – | – | – | – |
| CC(C)(C)[C@H](NC(=O)C(F)(F)F)C(=O)N1C[C@@H]2[C@H]3C[C@@H]([C@@H]2[C@H]1C(=O)N[C@H](C#N)C[C@@H]1CCNC1=O)C1(CC1)C3 [Compound 60, (1′S,2′R,5′S,6′S,7′S)—N-[(1S)-1-cyano-2-[(3S)-2-oxopyrrolidin-3-yl]ethyl]-4′-[(2S)-3,3-dimethyl-2-(2,2,2-trifluoroacetamido)butanoyl]-4′-azaspiro[cyclopropane-1,8′-tricyclo[5.2.1.0^{2,6}]decane]-5′-carboxamide] | < 5.00 | – | 5.00 to 6.00 | ≤ 5.00 | > 100 | > 10 | 6.70 to 7.70 | 6.00 to 7.00 | – | – | – | – | – |
| CC(C)(C)[C@H](NC(=O)C(F)(F)F)C(=O)N1C[C@@H]2[C@H]3C[C@@H]([C@@H]2[C@H]1C(=O)N[C@H](C#N)C[C@@H]1CCNC1=O)C(F)(F)C3 [Compound 61, (1S,2R,3S,6R,7S)—N-[(1S)-1-cyano-2-[(3S)-2-oxopyrrolidin-3-yl]ethyl]-4-[(2S)-3,3-dimethyl-2-(2,2,2-trifluoroacetamido)butanoyl]-9,9-difluoro-4-azatricyclo[5.2.1.0^{2,6}]decane-3-carboxamide] | < 5.00 | – | 6.00 to 7.00 | ≤ 5.00 | > 100 | > 10 | > 7.70 | – | – | – | – | – | – |
| C=C1C[C@@H]2C[C@H]1[C@H]1[C@@H]2CN(C(=O)[C@@H](NC(=O)C(F)(F)F)C(C)(C)C)[C@@H]1C(=O)N[C@H](C#N)C[C@@H]1CCNC1=O [Compound 62, (1S,2S,3S,6R,7S)—N-[(1S)-1-cyano-2-[(3S)-2-oxopyrrolidin-3-yl]ethyl]-4-[(2S)-3,3-dimethyl-2-(2,2,2-trifluoroacetamido)butanoyl]-9-methylidene-4-azatricyclo[5.2.1.0^{2,6}]decane-3-carboxamide] | < 5.00 | – | > 7.00 | ≤ 5.00 | > 100 | > 10 | > 7.70 | > 7.00 | – | – | – | – | – |
| CC(C)(C1CC1)[C@H](NC(=O)C(F)(F)F)C(=O)N1C[C@H]2[C@@H]([C@H]1C(=O)N[C@H](C#N)C[C@@H]1CCNC1=O)[C@H]1C=C[C@@H]2C1 [Compound 69, (1R,2S,3S,6R,7S)—N-[(1S)-1-cyano-2-[(3S)-2-oxopyrrolidin-3-yl]ethyl]-4-[(2S)-3-cyclopropyl-3-methyl-2-(2,2,2-trifluoroacetamido)butanoyl]-4-azatricyclo[5.2.1.0^{2,6}]dec-8-ene-3-carboxamide] | < 5.00 | – | > 7.00 | ≤ 5.00 | > 100 | > 10 | > 7.70 | > 7.00 | – | – | – | – | – |
| CC(C)(C)[C@H](NC(=O)C(F)(F)F)C(=O)N1C[C@@H]2[C@H]3CC[C@H](CC3)[C@@H]2[C@H]1C(=O)N[C@H](C#N)C[C@@H]1CCNC1=O [Compound 71b] | < 5.00 | > 7.70 | > 7.00 | – | > 100 | > 10 | – | > 7.00 | – | – | – | – | – |
| CC(C)(C)[C@H](NC(=O)C(F)(F)F)C(=O)N1C[C@H]2[C@@H]([C@H]1C(=O)N[C@H](C#N)CC1CC3(COC3)NC1=O)[C@H]1C=C[C@@H]2C1 (stereo partly drawn) [Compound 106, (1R,2S,3S,6R,7S)—N-[(1S)-1-cyano-2-{6-oxo-2-oxa-5-azaspiro[3.4]octan-7-yl}ethyl]-4-[(2S)-3,3-dimethyl-2-(2,2,2-trifluoroacetamido)butanoyl]-4-azatricyclo[5.2.1.0^{2,6}]dec-8-ene-3-carboxamide] | < 6.30 | – | > 7.00 | – | > 100 | > 10 | > 7.70 | > 7.00 | – | – | – | – | – |
| CC(C)(C)[C@H](NC(=O)C(F)(F)F)C(=O)N1C[C@H]2[C@@H]([C@H]1C(=O)NC(C#N)CC1CCc3cnnn31)[C@H]1C=C[C@@H]2C1 (stereo partly drawn) [Example 37, (1R,2S,3S,6R,7S)—N-(1-cyano-2-{4H,5H,6H-pyrrolo[1,2-c][1,2,3]triazol-6-yl}ethyl)-4-[(2S)-3,3-dimethyl-2-(2,2,2-trifluoroacetamido)butanoyl]-4-azatricyclo[5.2.1.0^{2,6}]dec-8-ene-3-carboxamide] | < 5.00 | 6.70 to 7.70 | – | ≤ 5.00 | – | – | – | – | < 5.00 | 5.00 to 6.00 | 5.00 to 6.00 | – | – |
| CC(C)(C)[C@H](NC(=O)C(F)(F)Cl)C(=O)N1C[C@H]2[C@@H]([C@H]1C(=O)N[C@H](C#N)C[C@@H]1CCNC1=O)[C@H]1C=C[C@@H]2C1 [Example 39, (1R,2S,3S,6R,7S)-4-[(2S)-2-(2-chloro-2,2-difluoroacetamido)-3,3-dimethylbutanoyl]-N-[(1S)-1-cyano-2-[(3S)-2-oxopyrrolidin-3-yl]ethyl]-4-azatricyclo[5.2.1.0^{2,6}]dec-8-ene-3-carboxamide] | < 5.00 | > 7.70 | – | ≤ 5.00 | – | – | – | – | – | > 7.00 | > 7.00 | > 7.00 | – |
| CC(C)(C)[C@H](NC(=O)C(F)(F)Cl)C(=O)N1C[C@@H]2[C@@H]3CC[C@@H](C3)[C@@H]2[C@H]1C(=O)N[C@H](C#N)C[C@@H]1CCNC1=O [Example 40, (1S,2S,3S,6R,7R)-4-[(2S)-2-(2-chloro-2,2-difluoroacetamido)-3,3-dimethylbutanoyl]-N-[(1S)-1-cyano-2-[(3S)-2-oxopyrrolidin-3-yl]ethyl]-4-azatricyclo[5.2.1.0^{2,6}]decane-3-carboxamide] | < 5.00 | > 7.70 | – | ≤ 5.00 | – | – | – | – | – | > 7.00 | > 7.00 | > 7.00 | – |
| CC(C)(C)[C@H](NC(=O)C(F)(F)F)C(=O)N1C[C@@H]2[C@H]3C[C@@H]([C@@H]2[C@H]1C(=O)N[C@H](C#N)C[C@@H]1CCNC1=O)[C@H](O)C3 [Example 85, (1S,2R,3S,6R,7S,9R)—N-[(1S)-1-cyano-2-[(3S)-2-oxopyrrolidin-3-yl]ethyl]-4-[(2S)-3,3-dimethyl-2-(2,2,2-trifluoroacetamido)butanoyl]-9-hydroxy-4-azatricyclo[5.2.1.0^{2,6}]decane-3-carboxamide] | < 5.00 | 5.70 to 6.70 | – | ≤ 5.00 | – | – | – | – | < 5.00 | 4.30 to 5.00 | – | – | < 5.00 |
| CC(C)(C)[C@H](NC(=O)C(F)(F)F)C(=O)N1C[C@@]2(F)[C@@H]([C@H]1C(=O)N[C@H](C#N)C[C@@H]1CCNC1=O)[C@H]1C=C[C@@H]2C1 [Example 94, (1R,2R,3S,6S,7S)—N-[(1S)-1-cyano-2-[(3S)-2-oxopyrrolidin-3-yl]ethyl]-4-[(2S)-3,3-dimethyl-2-(2,2,2-trifluoroacetamido)butanoyl]-6-fluoro-4-azatricyclo[5.2.1.0^{2,6}]dec-8-ene-3-carboxamide] | < 6.30 | – | > 7.00 | – | > 100 | > 1 | > 7.70 | > 7.00 | – | – | – | – | – |

Source: patent publication US12252481B2, “Anti-viral compounds” (Aligos Therapeutics, Inc., priority 2021, dated 2025)
